Assay results from US9216974B2, “Phenoxazine derivatives and methods of use thereof” (Washington University, priority 2010, dated 2015).
pKd, pKi: −log10 of the molar value. Entries after “also recorded” stand apart in the source; their conditions may differ. Read-outs that look alike come from different tables or passages of the source.

Legend:
[1] = assay type: physicochemical
Experimental: Hydrophobicity affects drug absorption, bioavailability, hydrophobic drug-receptor interactions, metabolism of molecules, and their toxicity. […] The mixture will be incubated with agitation for 30 min until ionic and non-ionic forms of test compound reach equilibrium. Two layers will be separated by centrifugation. Test compound's concentrations in octanol and water layers will be determined by UV/VIS spectrophotometry. The log Poct value will be calculated from log (concentration in n-octanol fraction/concentration in water fraction). Experiments will be repeated at least 3 times with triplicated samples.

[2] = target: CAA (cerebrovascular Aβ deposits) (Homo sapiens, UniProt P05067); test: In situ binding assay in fixed brain tissue, CAA; parameters: species or system Tg2576 mice
Excerpt: (§1) Tg2576 mice are a well characterized mouse model of AD and CAA. They develop congophilic Aβ aggregates within neuritic plaques and leptomeningeal and cortical penetrating arteries at 11 months of age (Hsiao et al., 1996; Kawarabayashi et al., 2001; Fryer et al., 2005; Han et al., 2008).
(§2) The Ki values for CAA vs. neuritic plaques will be calculated utilizing the fluorescent amyloid-ligand methoxy-X34 and fluorescent microscopic method. […] Tissue sections (3 sections per reaction) will be then mounted and coverslipped. Photographs of methoxy-X34 binding images will be taken using a Nikon fluorescent microscope. The fluorescent intensity on cerebral amyloid deposits and neuritic plaques will be separately quantified using Image J software. Finally, Ki values will be calculated by plotting % bound vs. log concentrations of competitors followed by non-linear regression using the Graph Pad Prism software. The maximum binding will be obtained from the methoxy-X34 intensity in the absence of competitors, while non-specific binding will be detected by the fluorescent intensity in brain tissues incubated without methoxy-X34.
In situ binding assay: Tg2576 mice or littermate controls at 15 months of age will be perfused with phosphatebuffered saline (PBS) for 5 min. Brains will be removed, fixed in 4% paraformaldehyde, and preserved in 30% glucose-PBS solution at 4° C. Brains will be coronally sectioned using a microtome and kept in cryoprotectant solution at −20° C. To label amyloid deposits, brain sections (3 sections per reaction) will be permeabilized with PBS containing 0.25% Triton X-100 for 20 min at room temperature, followed by incubation with 1 μM methoxy-X34 in the presence or absence of competitors at various concentrations (10-9-10-6 M). Sections will be subjected to fluorescent microscopy using a Nikon Eclipse C600 microscope. The fluorescent intensity of methoxy-X34 in vessels and neuritic plaques will be quantified using the ImageJ software. The binding affinity (Ki) will be calculated using the Graph Pad Prism software.

[3] = target: CAA (Homo sapiens, UniProt P05067); test: Binding affinities for CAA performed on isolated vessels determined by fluorescent binding; settings: for pKi: read-out: Binding affinity Ki; for pKd: read-out: Binding affinity KD
Experimental: The isolation of cerebral vessels for biochemical analysis will be performed as described (78, 98). […] After the cerebellum is removed, the brain will be homogenized in fivefold excess of vessel buffer. An equal volume of 26% dextran will be added, and the tissue will be centrifuged at 6200×g for 30 min at 4° C. The resulting vessels form a pellet, whereas the parenchymal “vessel-free” material forms a solid, compact disc at the top of the solution. The […] will be resuspended in vessel buffer and passed over a 40-μm nylon mesh to capture vessels. Vessel and parenchymal material will be lysed in 5 M guanidine, 50 mM Tris, pH 8, with protease inhibitor cocktail (Roche) for 3 hr.

[4] = tested on: CAA vs. neuritic plaques; test: Staining of paraffin-embedded cortical brain sections of a human AD patient (3D6 and resorufin); assay type: binding; settings: 3D6 co-labeling
Excerpt: as §1

[5] = tested on: CAA vs. neuritic plaques; test: Co-staining of fixed brain sections of Tg2576 mice with fluorescent amyloid dyes; assay type: binding; settings: aged (16-month-old) Tg2576 mice
Excerpt: as §1

[6] = tested on: cerebrovascular Aβ deposits; test: In vivo live imaging of CAA amyloid deposits through closed cranial window; settings: topical application through cranial window, resorufin 2 μM, 16-month-old Tg2576 mice
Experimental: FIG. 4 depicts in vivo live imaging of CAA amyloid deposits through closed cranial window. A,B. Closed cranial window was prepared on the right parietal bone of 16-month-old Tg2576 mice. Leptomeningeal arterioles (B) were subjected to live imaging using a fluorescent microscope. […] Scale bars: in C-E: 250 μm, in E: 100 μm.

[7] = tested on: Aβ deposits in cerebral vessels; test: Multi-photon microscopy of whole brains stained with resorufin and phalloidin; settings: 16-month-old Tg2576 mice
[8] = tested on: neuritic plaques; test: In situ binding assay in fixed brain tissue, neuritic plaques; parameters: species or system Tg2576 mice; settings: in situ binding assay at a concentration of 160 μM
Excerpt: as §1, §2
In situ binding assay: Tg2576 mice or littermate controls at 15 months of age will be perfused with phosphatebuffered saline (PBS) for 5 min. […] The fluorescent intensity of methoxy-X34 in vessels and neuritic plaques will be quantified using the ImageJ software. […]

[9] = normal mice, cited from earlier work
[10] = literature value; cited from earlier work
[11] = normal rats; cited from earlier work

CCOc1ccc2nc3ccc(=O)cc-3oc2c1 [Ethoxy-resorufin, 7-ethoxyresorufin]
lipophilicity [1]: moderate lipophilicity
selective binding affinity for CAA deposits [2]: low nanomolar range
pKi ([2]; preliminary studies, read-out: binding affinity (Ki) for cerebrovascular Aβ deposits): 6.61

COc1ccc2nc3ccc(=O)cc-3oc2c1 [Methoxy-resorufin]
pKi [3]: 5.33

O=c1ccc2nc3ccc(O)cc3oc-2c1 [Resorufin, resorufin]
staining of arterioles vs. neuritic plaques in human AD brain [4]: selectively labeled 3D6-immunoreactive amyloid deposits in arterioles but less likely neuritic plaques; also recorded: prominent in 3D6-positive cerebral arterioles but was rarely seen in 3D6-positive neuritic plaques
staining of CAA vs. neuritic plaques [5]: CAA>>>neuritic plaques
staining of CAA vs. neuritic plaques ([5]; listed as resorufin): selectively bound fibrillar amyloid-laden arterioles
log Poct ([1]; 30 min): 0.427
fluorescent labeling of amyloid deposits in live mice [6]: selectively labeled amyloid deposits in arterioles
fluorescent labeling of amyloid deposits in live mice ([6]; listed as resorufin): marked fluorescent labeling within the walls of leptomeningeal arteries (but not in neuritic plaques); also recorded: visualized cerebrovascular Aβ deposits
intensity of resorufin staining by vessel type [7]: greater in pial arterioles than in penetrating arterioles or capillaries
binding to neuritic plaques [8]: negligible

C#COc1ccc2nc3ccc(=O)cc-3oc2c1 [WC-5-1]
pKd [3]: 6.08
pKi [3]: 5.34

O=c1ccc2nc3ccc(OCCF)cc3oc-2c1 [WC-5-2]
pKd [3]: 6.10

O=c1ccc2nc3ccc(OCc4cn(CCF)nn4)cc3oc-2c1 [WC-5-3]
pKd [3]: 5.62

COc1cccc(COc2ccc3nc4ccc(=O)cc-4oc3c2)c1 [WC-5-4]
pKd [3]: 6.27

COc1ccc(COc2ccc3nc4ccc(=O)cc-4oc3c2)cc1 [WC-5-5]
pKi [3]: 6.66

CC(=O)OCCOc1ccc2nc3ccc(=O)cc-3oc2c1 [WC-5-8]
pKi [3]: 6.07

O=c1ccc2nc3ccc(OCCBr)cc3oc-2c1 [WC-5-9]
pKd [3]: 6.03

O=c1ccc2nc3ccc(OCc4ccc(I)cc4)cc3oc-2c1 [WC-5-31]
pKd [3]: < 5.00

COCCOc1ccc2nc3ccc(=O)cc-3oc2c1 [WC-5-42]
pKi [3]: 6.46

COCCOCCOc1ccc2nc3ccc(=O)cc-3oc2c1 [WC-5-43]
pKi [3]: 6.39

COc1ccc(OCCOc2ccc3nc4ccc(=O)cc-4oc3c2)cc1 [WC-5-45]
pKi [3]: 6.38

COc1ccc(OCCOCCOc2ccc3nc4ccc(=O)cc-4oc3c2)cc1 [WC-5-47]
pKi [3]: < 5.00

[11CH3]Nc1ccc(-c2nc3ccc(O)cc3s2)cc1 [[^11C]PIB]
brain level ([9]; 2 min after injection): 3.2 % ID/g
brain level ([9]; 60 min): 0.21 % ID/g
fraction in the brain cleared ([9]; within 60 min): 93%

COc1cc(/C=C/c2ccc(O)cc2)ccc1/C=C/c1ccc(O)cc1 [methoxy-X04, reference compound]
fluorescent labeling of amyloid deposits in live mice [6]: staining was noted in both arterioles and senile plaques; also recorded: present in both cerebral arteries and parenchymal neuritic plaques
log Poct [10]: 2.6
brain clearance estimated half life (t½) [11]: ~45 min

COc1cc(C=Cc2ccc(O)c(C(=O)O)c2)ccc1C=Cc1ccc(O)c(C(=O)O)c1 [methoxy-X34, reference compound]
staining of CAA vs. neuritic plaques [5]: labeled amyloid deposited in both CAA and neuritic plaques; also recorded: visualized both CAA and neuritic plaques
affinity for CAA vs. neuritic plaques ([2]; in situ binding assay): almost an equal affinity for both CAA and neuritic plaques

methoxyphenyl-resorufin
lipophilicity [1]: moderate lipophilicity
selective binding affinity for CAA deposits [2]: low nanomolar range

phenyl-resorufin
lipophilicity [1]: moderate lipophilicity
selective binding affinity for CAA deposits [2]: low nanomolar range
